Experimental data published in patent US20180371044A1, “PEPTIDOMIMETIC MACROCYCLES” (Aileron Therapeutics, Inc., priority 2015, published 2018).
Where a SMILES comes first, the peptide text is derived from it. Bridges are numbered along the chain shown (N, C = ends). [ ]: non-standard residue; d: D form. NMeY = CN[C@@H](Cc1ccc(O)cc1)C(=O)O; R8 = C=CCCCCCC[C@@](C)(N)C(=O)O; S5 = C=CCCC[C@](C)(N)C(=O)O; Nle = CCCC[C@H](N)C(=O)O

Molecular target: T1, human GHRH receptor (hGHRHR) (Homo sapiens, UniProt Q02643)
T1 construct: expressed in transfected cells; host or cells: Human 293 cells
T1 sequence (Q02643 23-423): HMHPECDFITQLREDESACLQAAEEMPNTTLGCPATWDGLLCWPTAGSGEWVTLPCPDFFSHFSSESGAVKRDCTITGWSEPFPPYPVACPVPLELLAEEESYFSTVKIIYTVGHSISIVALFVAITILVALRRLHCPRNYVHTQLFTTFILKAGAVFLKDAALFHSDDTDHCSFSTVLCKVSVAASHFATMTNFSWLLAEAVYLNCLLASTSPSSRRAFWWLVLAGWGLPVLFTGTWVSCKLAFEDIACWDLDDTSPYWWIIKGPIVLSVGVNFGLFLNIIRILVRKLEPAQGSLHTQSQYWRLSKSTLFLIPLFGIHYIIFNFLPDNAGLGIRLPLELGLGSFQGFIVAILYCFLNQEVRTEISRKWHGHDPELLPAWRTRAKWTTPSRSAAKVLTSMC
Test: GHRHR agonism measured by cAMP (HTRF) in human 293 cells expressing hGHRHR;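 note: receptor expressed transiently or stably, cells stimulated in serum-free medium, EC50 from a non-linear dose-response fit, maximal response defined by reference GHRH stimulation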
Type: cell-based
Details: 30 min at RT
Description: GHRH (1-29) and cross-linked peptidomimetic macrocycles were tested for agonism at the human GHRH receptor (hGHRHR) at various concentrations. Human 293 cells transiently or stably expressing hGHRHR were detached from cell culture flasks with versene (Life Technologies™), suspended in serum-free medium (50 k cells/assay point), and stimulated for 30 min at RT with GHRH (1-29) (Bachem™) or cross-linked peptidomimetic macrocycles. cAMP was quantified using an HTRF®-based assay (CisBio) and used according to the manufacturer's instructions. An EC50 for each agonist was calculated from a non-linear fit of response vs dose (GraphPad™ Prism). The maximum response was determined by stimulating with 10 μM GHRH (1-29). (+=>50 nm; ++=>25-50 nm; +++=>10-25 nm; ++++=>1-10 nm; +++++=≤1 nm).

Row | Structure (SMILES) | EC50 [nM]
1 | CCCC[C@H](NC(=O)[C@@H](NC(=O)[C@]1(C)CCCC=CCCC[C@](C)(NC(=O)[C@H](CCCNC(=N)N)NC(=O)[C@H](C)NC(=O)[C@H](CO)NC(=O)[C@H](CC(C)C)NC(=O)[C@H](CCC(N)=O)NC(=O)[C@H](C)NC(=O)[C@H](CC(C)C)NC(=O)[C@@H](NC(=O)[C@H](CCCCN)NC(=O)[C@H](CCCNC(=N)N)NC(=O)[C@H](Cc2ccc(O)cc2)NC(=O)[C@H](CO)NC(=O)[C@H](C)NC(=O)[C@@H](NC(=O)[C@H](Cc2ccccc2)NC(=O)[C@@H](NC(=O)[C@H](C)NC(=O)[C@H](CC(=O)O)NC(=O)[C@H](C)NC(=O)[C@H](Cc2ccc(O)cc2)NC)[C@@H](C)CC)[C@@H](C)O)C(C)C)C(=O)N[C@@H](C)C(=O)N[C@@H](CC(C)C)C(=O)N[C@@H](CCC(N)=O)C(=O)N1)[C@@H](C)CC)C(=O)N[C@@H](CO)C(=O)N[C@@H](CCCNC(=N)N)C(N)=O [SP-18] (H-[NMeY]ADAIFTASYRKVLAQLSAR[S5]ALQ[S5]I[Nle]SR-NH2; staple 21-25) | 10 to 25
2 | CCCC[C@H](NC(=O)[C@@H](NC(=O)[C@H](CC(=O)O)NC(=O)[C@H](CCC(N)=O)NC(=O)[C@H](CC(C)C)NC(=O)[C@H](C)NC(=O)[C@]1(C)CCCC=CCCCCCC[C@@](C)(NC(=O)[C@@H](NC(=O)[C@H](CCCCN)NC(=O)[C@H](CCCNC(=N)N)NC(=O)[C@H](Cc2ccc(O)cc2)NC(=O)[C@H](CO)NC(=O)[C@H](C)NC(=O)[C@@H](NC(=O)[C@H](Cc2ccccc2)NC(=O)[C@@H](NC(=O)[C@H](C)NC(=O)[C@H](CC(=O)O)NC(=O)[C@H](C)NC(=O)[C@H](Cc2ccc(O)cc2)NC)[C@@H](C)CC)[C@@H](C)O)C(C)C)C(=O)N[C@@H](C)C(=O)N[C@@H](CCC(N)=O)C(=O)N[C@@H](CC(C)C)C(=O)N[C@@H](CO)C(=O)N[C@@H](C)C(=O)N[C@@H](CCCNC(=N)N)C(=O)N1)[C@@H](C)CC)C(=O)N[C@@H](CO)C(=O)N[C@@H](CCCNC(=N)N)C(N)=O [SP-26] (H-[NMeY]ADAIFTASYRKV[R8]AQLSAR[S5]ALQDI[Nle]SR-NH2; staple 14-21) | 10 to 25
3 | CCCC[C@H](NC(=O)[C@@H](NC(=O)[C@H](CC(=O)O)NC(=O)[C@H](CCC(N)=O)NC(=O)[C@]1(C)CCCC=CCCCCCC[C@@](C)(NC(=O)[C@H](C)NC(=O)[C@H](CC(C)C)NC(=O)[C@@H](NC(=O)[C@H](CCCCN)NC(=O)[C@H](CCCNC(=N)N)NC(=O)[C@H](Cc2ccc(O)cc2)NC(=O)[C@H](CO)NC(=O)[C@H](C)NC(=O)[C@@H](NC(=O)[C@H](Cc2ccccc2)NC(=O)[C@@H](NC(=O)[C@H](C)NC(=O)[C@H](CC(=O)O)NC(=O)[C@H](C)NC(=O)[C@H](Cc2ccc(O)cc2)NC)[C@@H](C)CC)[C@@H](C)O)C(C)C)C(=O)N[C@@H](CC(C)C)C(=O)N[C@@H](CO)C(=O)N[C@@H](C)C(=O)N[C@@H](CCCNC(=N)N)C(=O)N[C@@H](CCCCN)C(=O)N[C@@H](C)C(=O)N1)[C@@H](C)CC)C(=O)N[C@@H](CO)C(=O)N[C@@H](CCCNC(=N)N)C(N)=O [SP-28] (H-[NMeY]ADAIFTASYRKVLA[R8]LSARKA[S5]QDI[Nle]SR-NH2; staple 16-23) | 1 to 10
4 | CCCC[C@H](NC(=O)[C@@H](NC(=O)[C@H](CC(=O)O)NC(=O)[C@]1(C)CCCC=CCCCCCC[C@@](C)(NC(=O)[C@H](CCC(N)=O)NC(=O)[C@H](C)NC(=O)[C@H](CC(C)C)NC(=O)[C@@H](NC(=O)[C@H](CCCCN)NC(=O)[C@H](CCCNC(=N)N)NC(=O)[C@H](Cc2ccc(O)cc2)NC(=O)[C@H](CO)NC(=O)[C@H](C)NC(=O)[C@@H](NC(=O)[C@H](Cc2ccccc2)NC(=O)[C@@H](NC(=O)[C@H](C)NC(=O)[C@H](CC(=O)O)NC(=O)[C@H](C)NC(=O)[C@H](Cc2ccc(O)cc2)NC)[C@@H](C)CC)[C@@H](C)O)C(C)C)C(=O)N[C@@H](CO)C(=O)N[C@@H](C)C(=O)N[C@@H](CCCNC(=N)N)C(=O)N[C@@H](CCCCN)C(=O)N[C@@H](C)C(=O)N[C@@H](CC(C)C)C(=O)N1)[C@@H](C)CC)C(=O)N[C@@H](CO)C(=O)N[C@@H](CCCNC(=N)N)C(N)=O [SP-29] (H-[NMeY]ADAIFTASYRKVLAQ[R8]SARKAL[S5]DI[Nle]SR-NH2; staple 17-24) | 1 to 10

More lines, now with the values ahead:

Row | EC50 [nM] | Structure (SMILES)
5 | 1 to 10 | CCCC[C@H](NC(=O)[C@@H](NC(=O)[C@H](CC(=O)O)NC(=O)[C@H](CCC(N)=O)NC(=O)[C@H](CC(C)C)NC(=O)[C@H](C)NC(=O)[C@H](CCCCN)NC(=O)[C@H](CCCNC(=N)N)NC(=O)[C@H](C)NC(=O)[C@H](CO)NC(=O)[C@H](CC(C)C)NC(=O)[C@H](CCC(N)=O)NC(=O)[C@H](C)NC(=O)[C@H](CC(C)C)NC(=O)[C@@H](NC(=O)[C@]1(C)CCCC=CCCCCCC[C@@](C)(NC(=O)[C@H](C)NC(=O)[C@H](CC(=O)O)NC(=O)[C@H](C)NC(=O)[C@H](Cc2ccc(O)cc2)NC)C(=O)N[C@@H](Cc2ccccc2)C(=O)N[C@@H]([C@@H](C)O)C(=O)N[C@@H](C)C(=O)N[C@@H](CO)C(=O)N[C@@H](Cc2ccc(O)cc2)C(=O)N[C@@H](CCCNC(=N)N)C(=O)N1)C(C)C)[C@@H](C)CC)C(=O)N[C@@H](CO)C(=O)N[C@@H](CCCNC(=N)N)C(N)=O [SP-24] (H-[NMeY]ADA[R8]FTASYR[S5]VLAQLSARKALQDI[Nle]SR-NH2; staple 5-12)
6 | 1 to 10 | CCCC[C@H](NC(=O)[C@@H](NC(=O)[C@H](CC(=O)O)NC(=O)[C@H](CCC(N)=O)NC(=O)[C@H](CC(C)C)NC(=O)[C@H](C)NC(=O)[C@H](CCCCN)NC(=O)[C@H](CCCNC(=N)N)NC(=O)[C@H](C)NC(=O)[C@H](CO)NC(=O)[C@H](CC(C)C)NC(=O)[C@H](CCC(N)=O)NC(=O)[C@]1(C)CCCC=CCCCCCC[C@@](C)(NC(=O)[C@@H](NC(=O)[C@H](Cc2ccccc2)NC(=O)[C@@H](NC(=O)[C@H](C)NC(=O)[C@H](CC(=O)O)NC(=O)[C@H](C)NC(=O)[C@H](Cc2ccc(O)cc2)NC)[C@@H](C)CC)[C@@H](C)O)C(=O)N[C@@H](CO)C(=O)N[C@@H](Cc2ccc(O)cc2)C(=O)N[C@@H](CCCNC(=N)N)C(=O)N[C@@H](CCCCN)C(=O)N[C@@H](C(C)C)C(=O)N[C@@H](CC(C)C)C(=O)N1)[C@@H](C)CC)C(=O)N[C@@H](CO)C(=O)N[C@@H](CCCNC(=N)N)C(N)=O [SP-25] (H-[NMeY]ADAIFT[R8]SYRKVL[S5]QLSARKALQDI[Nle]SR-NH2; staple 8-15)
7 | 1 to 10 | CCCC[C@H](NC(=O)[C@@H](NC(=O)[C@H](CC(=O)O)NC(=O)[C@H](CCC(N)=O)NC(=O)[C@H](CC(C)C)NC(=O)[C@]1(C)CCCC=CCCCCCC[C@@](C)(NC(=O)[C@H](CC(C)C)NC(=O)[C@@H](NC(=O)[C@H](CCCCN)NC(=O)[C@H](CCCNC(=N)N)NC(=O)[C@H](Cc2ccc(O)cc2)NC(=O)[C@H](CO)NC(=O)[C@H](C)NC(=O)[C@@H](NC(=O)[C@H](Cc2ccccc2)NC(=O)[C@@H](NC(=O)[C@H](C)NC(=O)[C@H](CC(=O)O)NC(=O)[C@H](C)NC(=O)[C@H](Cc2ccc(O)cc2)NC)[C@@H](C)CC)[C@@H](C)O)C(C)C)C(=O)N[C@@H](CCC(N)=O)C(=O)N[C@@H](CC(C)C)C(=O)N[C@@H](CO)C(=O)N[C@@H](C)C(=O)N[C@@H](CCCNC(=N)N)C(=O)N[C@@H](CCCCN)C(=O)N1)[C@@H](C)CC)C(=O)N[C@@H](CO)C(=O)N[C@@H](CCCNC(=N)N)C(N)=O [SP-27] (H-[NMeY]ADAIFTASYRKVL[R8]QLSARK[S5]LQDI[Nle]SR-NH2; staple 15-22)
